Where “and” joins values, the source holds several entries; their conditions need not be identical. Identical values can stand only once. Calls of active or inactive are those of the source. No rule for the calls is given here.
Molecular target: Sphingosine 1-phosphate receptor 4 (Homo sapiens) (UniProt O95977)
Assay: S1P4 receptor agonist potency, late-stage follow-up, cell-based, fluorescence, dose response, synthesized compounds set 2 (AID 504877)
Settings: S1P4 cell-based agonist assay, fluorescence read-out

Compound	EC50 (run 1)	EC50 (run 2)	EC50 (run 3)
CN=C1S/C(=C\c2cc(C)n(-c3ccc(F)cc3F)c2C)C(=O)N1CCOC	1580 nM	1.85 nM	
Cc1cc(/C=C2\SC(=Nc3ccccc3)NC2=O)c(C)n1-c1ccccc1F	> 50000 nM (inactive)	> 50000 nM (inactive)	> 50000 nM (inactive)
CCN=C1S/C(=C/c2cc(C)n(-c3ccc(F)cc3F)c2C)C(=O)N1CC	75.3 nM	133 nM	104 nM
Cc1cc(/C=C2\SC(=NC(C)C)N(C(C)C)C2=O)c(C)n1-c1ccccc1F	> 50000 nM (inactive)	> 50000 nM (inactive)	> 50000 nM (inactive)
COCCN=C1S/C(=C\c2cc(C)n(-c3ccc(F)cc3F)c2C)C(=O)N1C	37.7 nM and 51.4 nM	79.1 nM	
CN=C1S/C(=C/c2cc(C)n(-c3ccc(F)cc3F)c2C)C(=O)N1C	113 nM	199 nM	317 nM
CCN=C1S/C(=C/c2cc(C)n(C(C)c3ccccc3)c2C)C(=O)N1CC (stereo not drawn)	inactive	> 50000 nM (inactive)	inactive
CCN=C1S/C(=C/c2cc(C)n(Cc3ccccc3)c2C)C(=O)N1CC	598 nM	703 nM	154 nM
Cc1cc(/C=C2\SC(=O)N(C)C2=O)c(C)n1-c1ccccc1F	> 50000 nM (inactive)	> 50000 nM (inactive)	8960 nM
CCN=C1S/C(=C/c2cc(C)n(-c3ccc(Cl)cc3F)c2C)C(=O)N1CC	490 nM	733 nM	370 nM
CN=C1S/C(=C/c2cc(C)n(-c3cc(C)ccc3OC)c2C)C(=O)N1C	> 50000 nM (inactive)	> 50000 nM (inactive)	> 50000 nM (inactive)
CC/N=C1/SC(=Cc2cc(C)n(Cc3ccccc3OC)c2C)C(=O)N1CC	274 nM	663 nM	285 nM
C/N=C1/SC(=Cc2cc(C)n(Cc3ccc(F)cc3F)c2C)C(=O)N1C	84.7 nM	195 nM	161 nM
CCN=C1S/C(=C\c2cc(C)n(-c3ccccc3)c2C)C(=O)N1CC	635 nM	705 nM	465 nM
CCN=C1S/C(=C\c2ccn(-c3ccccc3F)c2)C(=O)N1CC	> 50000 nM (inactive)	> 50000 nM (inactive)	inactive
CCN=C1S/C(=C\c2cc(C)n(-c3ccccc3F)c2C)C(=O)N1CC	116 nM	268 nM	368 nM
CN=C1S/C(=C/c2cc(C)n(-c3ccc(Cl)cc3F)c2C)C(=O)N1C	432 nM	686 nM	202 nM
CN=C1NC(=O)/C(=C\c2cc(C)n(-c3ccccc3F)c2C)S1	5380 nM	4530 nM	942 nM

Now from value to compound:

EC50 (run 1)	EC50 (run 2)	EC50 (run 3)	Compound
> 50000 nM (inactive)	> 50000 nM (inactive)	> 50000 nM (inactive)	CN=C1S/C(=C\c2cc(C)n(-c3ccccc3Br)c2C)C(=O)N1C
> 50000 nM (inactive)	> 50000 nM (inactive)	inactive	CN=C1S/C(=C/c2cc(C)n(-c3ccccc3C)c2C)C(=O)N1C
> 50000 nM (inactive)	> 50000 nM (inactive)	> 50000 nM (inactive)	Cc1cc(/C=c2\sc3n(c2=O)CCCN=3)c(C)n1-c1ccccc1F
> 50000 nM (inactive)	> 50000 nM (inactive)	> 50000 nM (inactive)	CCN=C1S/C(=C\c2cc(C)n(Cc3ccccc3F)c2C)C(=O)N1CC
> 50000 nM (inactive)	> 50000 nM (inactive)	> 50000 nM (inactive)	CN=C1NC(=O)/C(=C\c2cc(C)n(-c3cccc(F)c3)c2C)S1
> 50000 nM (inactive)	> 50000 nM (inactive)	> 50000 nM (inactive)	CN=C1S/C(=C\c2ccn(Cc3ccccc3)c2)C(=O)N1C
> 50000 nM (inactive)	> 50000 nM (inactive)	> 50000 nM (inactive)	CN=C1S/C(=C\c2ccn(-c3ccccc3F)c2)C(=O)N1C
5310 nM	inactive	918 nM	CCN=C1S/C(=C/c2cc(C)n(-c3ncccc3F)c2C)C(=O)N1CC
inactive	> 50000 nM (inactive)	5390 nM	CCN=C1S/C(=C/c2ccn(-c3ccc(F)cc3F)c2)C(=O)N1CC
158 nM	212 nM	102 nM	CCN=C1S/C(=C/c2cc(C)n(-c3ccccn3)c2C)C(=O)N1CC
> 50000 nM (inactive)	> 50000 nM (inactive)	inactive	COCCN=C1S/C(=C\c2cc(C)n(Cc3ccccc3)c2C)C(=O)N1CCOC
203 nM	454 nM	130 nM	CN=C1S/C(=C/c2cc(C)n(Cc3ccccc3)c2C)C(=O)N1C

Source: PubChem BioAssay AID504877 (The Scripps Research Institute Molecular Screening Center, 2011)
